From patent US6670339B1, “Use of sulfated oligosaccharides in lowering blood triglyceride levels” (The Australian National University, priority 1997, dated 2003)

What was measured:
[1] = system: blood triglyceride levels; assay: Blood triglyceride levels in Fisher rats after 7 days of twice daily s.c. injection; assay type: in vivo; details: female Fisher rats, blood on day 8, control 1.43±0.13
Description: 1. Nine 10 week old female Fisher rats were treated with the sulfated mannopentaose phosphate or saline over a 7 day period as follows. On […] the rats were weighed and placed into three groups of three rats based on weight. On every subsequent morning their weights were recorded. Each morning beginning on day 1 at approximately 8.00 AM and evening at approximately 8.00 PM the rats were injected in the following manner. The control group received sterile normal saline solution 100 μl s.c. One treatment group received the sulfated mannopentaose phosphate at a dose of 10 mg/kg s.c. in an injection volume of 100 μl of sterile saline solution. Thus, each rat in this group received a total daily dose of 20 mg/kg. Animals in the second treatment group received the sulfated mannopentaose phosphate at a dose of 50 mg/kg s.c. in an injection volume of 100 μl of sterile saline solution. Thus, each rat in this group received a total daily dose of 100 mg/kg. This injection routine was repeated for a total of 7 days.
On the morning of day 8 of the experiment, the rats were anaesthetised and blood was taken for triglyceride analysis. Triglyceride levels were determined using a commercially available assay kit (Sigma, Triglyceride—GPO-Trinder). […]

[2] = system: serum triglyceride levels; assay: Serum triglyceride levels in mice 2 hours after a single s.c. dose (dose response); assay type: in vivo, CBA/h female mice; details: single s.c. doses of 10 mg/kg and above (10, 20, 50, 100 mg/kg), 2 hours after injection
Description: FIG. 2. Effect of different single doses of sulfated mannopentaose phosphate (PI-88) (10-100 mg/kg) on serum triglyceride levels 2 hours following s.c. injection. Data presented as group means±SEM (n=4).
Thus, 20 CBA/h female mice 8-10 weeks old were weighed and placed into five groups, containing four mice each based on weight. The control group was injected with sterile normal saline solution 100 μl s.c. The respective treatment groups were injected with sulfated mannopentaose phosphate at doses of 10, 20, 50 or 100 mg/kg s.c. in a volume of 100 μl of sterile normal saline solution. Two hours following injection, mice were anaesthetised and blood was collected via cardiac puncture and allowed to clot and serum triglyceride levels were measured using a commercially available kit (Sigma, Triglyceride—GPO-Trinder).

[3] = system: blood triglyceride levels; assay: Blood triglyceride levels in mice under continuous infusion by mini-osmotic pump; assay type: in vivo, CBA/h female mice
Description: Thus, 10 CBA/h female mice 8-10 weeks old were weighed and divided into two groups of 5 mice each based on weight. Mice in the control group were implanted subcutaneously with a mini-osmotic pump (Alzet 2001) containing sterile normal saline solution. Mice in the treatment group were implanted subcutaneously with a mini-osmotic pump containing the sulfated mannopentaose phosphate which delivered the sulfated mannopentaose phosphate at a dose of 50 mg/kg/day. At the end of the 7 day period over which the mini-osmotic pumps delivered their payload, blood (50 μl) was collected from the tail veins of mice from both groups and assayed for triglycerides (Sigma, Triglyceride—GPO-Trinder). Triglyceride levels in the blood from mice in the control group averaged 1.49±0.23 mM and triglyceride levels in the blood of mice in the treatment group averaged 1.01±0.07 mM. One week following the treatment period, blood triglyceride levels were measured again in each group and levels in the treatment group had returned to normal, or those approximating the control group. Thus, at this point levels of triglycerides in the blood of mice in the control group averaged 1.29±0.08 mM and levels of triglycerides in the blood of mice in the treatment group averaged 1.27±0.06 mM.

[4] = system: serum triglyceride levels; assay: Time course of serum triglyceride levels in mice after a single s.c. dose; assay type: in vivo, CBA/h female mice; details: single 50 mg/kg s.c.
Description: FIG. 1. Time course of the effect of a single s.c. dose (50 mg/kg) of sulfated mannopentaose phosphate (PI-88) on serum triglyceride levels, as measured by the Sigma triglyceride assay. Data presented as group means±SEM (n=4).
Thus, 32 CBA/h female mice 8-10 weeks old were weighed and placed into eight groups, containing four mice each based on weight. The control group was injected with sterile normal saline solution 100 μl s.c. All the treatment groups were injected with sulfated mannopentaose at a dose of 50 mg/kg s.c. in a volume of 100 μl of sterile normal saline solution. At 0.5, 1, 2, 3, 6, 24 and 48 hours following injection mice were anaesthetised and blood was collected via cardiac puncture and allowed to clot and serum triglyceride levels were measured using a commercially available kit (Sigma, Triglyceride—GPO-Trinder).

**Q.** “sulfated mannopentaose phosphate [PI-88 (15 SO4/molecule)]” was tested. Which blood triglyceride levels ([1]; 20 mg/kg/day s.c. (10 mg/kg twice daily)) did it give?
**A.** 0.3 ± 0.12 mmol/L

**Q.** And the blood triglyceride levels ([1]; 100 mg/kg/day s.c. (50 mg/kg twice daily))?
**A.** 0.1 ± 0.0 mmol/L

**Q.** What about the “reduction in blood triglyceride levels, in words” value [2] of the same substance?
**A.** significant reduction

**Q.** And the “triglyceride levels in the blood” value ([3]; 50 mg/kg/day by s.c. mini-osmotic pump, end of 7 day period, control 1.49±0.23)?
**A.** 1.01 ± 0.07 mM

**Q.** What about the “triglyceride levels in the blood” value ([3]; one week following the 7 day infusion of 50 mg/kg/day, control 1.29±0.08) of the same substance?
**A.** 1.27 ± 0.06 mM

**Q.** What about the “time to significant reduction in blood triglyceride levels” value [4] of the same substance?
**A.** ≤ 0.5 h

**Q.** And the “time until which triglyceride levels continued to fall (maximum lowering)” value [4]?
**A.** 2 h

**Q.** And the “triglyceride levels versus controls, in words” value ([4]; 6 hours after injection)?
**A.** significantly lower than controls

**Q.** And the “triglyceride levels versus controls, in words” value ([4]; 24 hour time point)?
**A.** returning to normal
